Measured values taken from ChEMBL document CHEMBL1201862, “PubChem BioAssay data set” (2004).
Blank lines part the entries; values can stand above or below the compound they belong to. Active and inactive are the calls of the source.

Tests used:
[1] = test system: T-cell; assay: inhibitors of CD8+ T cell–vesicle binding, dose response, mouse 2C CD8+ T cells, flow cytometry (AID 485284); type: functional
[2] = biological target: Type-1 angiotensin II receptor (Homo sapiens, UniProt P30556); assay: AT1 receptor agonists, dose response, selectivity assay for APJ receptor agonist project, cell-based, uHTS hits (AID 488865); type: functional;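 further: beta-arrestin recruitment to AT1 measured by enzyme fragment complementation luminescence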
[3] = biological target: T1, Coagulation factor XII (Homo sapiens, UniProt P00748); type: functional;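 further: activated factor XIIa alpha cleaving a fluorogenic AMC peptide substrate; inhibitor potency from loss of enzyme activity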
T1 sequence (P00748 whole entry): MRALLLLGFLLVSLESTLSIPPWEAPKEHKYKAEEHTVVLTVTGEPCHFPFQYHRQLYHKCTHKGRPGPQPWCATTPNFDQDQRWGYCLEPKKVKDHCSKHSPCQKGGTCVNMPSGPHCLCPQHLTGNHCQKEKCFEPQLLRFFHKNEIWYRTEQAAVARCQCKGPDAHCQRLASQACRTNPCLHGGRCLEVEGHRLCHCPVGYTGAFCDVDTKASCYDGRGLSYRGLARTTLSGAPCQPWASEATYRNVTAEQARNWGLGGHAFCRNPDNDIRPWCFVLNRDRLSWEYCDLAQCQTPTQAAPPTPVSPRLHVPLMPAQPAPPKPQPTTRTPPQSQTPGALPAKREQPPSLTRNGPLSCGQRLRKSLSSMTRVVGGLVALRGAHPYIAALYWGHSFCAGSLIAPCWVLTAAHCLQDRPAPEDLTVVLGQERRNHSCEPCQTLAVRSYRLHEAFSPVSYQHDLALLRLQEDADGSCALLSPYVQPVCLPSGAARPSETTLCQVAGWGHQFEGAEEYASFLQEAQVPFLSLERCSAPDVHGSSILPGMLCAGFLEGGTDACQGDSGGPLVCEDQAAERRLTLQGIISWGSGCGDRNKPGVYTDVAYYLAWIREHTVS

[4] = cytotoxicity in HPDE-C7 cells, cell-based, fluorescence, HTS (AID 430); type: functional; conditions: Homo sapiens
[5] = cytotoxicity in KRAS-transformed pancreatic duct cells, primary screen, cell-based, fluorescence, HTS (AID 431); type: functional; conditions: Homo sapiens;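 further: cell line used: HPDE-C7K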
[6] = biological target: T2, Short transient receptor potential channel 4 (Mus musculus, UniProt Q9QUQ5); assay: TRPC4 positive allosteric modulators, dose response, cell-based, HEK293 TRPC4/mu-opioid, Fluo-4 calcium, EC20 DAMGO (AID 434941); type: functional
T2 sequence (Q9QUQ5 whole entry): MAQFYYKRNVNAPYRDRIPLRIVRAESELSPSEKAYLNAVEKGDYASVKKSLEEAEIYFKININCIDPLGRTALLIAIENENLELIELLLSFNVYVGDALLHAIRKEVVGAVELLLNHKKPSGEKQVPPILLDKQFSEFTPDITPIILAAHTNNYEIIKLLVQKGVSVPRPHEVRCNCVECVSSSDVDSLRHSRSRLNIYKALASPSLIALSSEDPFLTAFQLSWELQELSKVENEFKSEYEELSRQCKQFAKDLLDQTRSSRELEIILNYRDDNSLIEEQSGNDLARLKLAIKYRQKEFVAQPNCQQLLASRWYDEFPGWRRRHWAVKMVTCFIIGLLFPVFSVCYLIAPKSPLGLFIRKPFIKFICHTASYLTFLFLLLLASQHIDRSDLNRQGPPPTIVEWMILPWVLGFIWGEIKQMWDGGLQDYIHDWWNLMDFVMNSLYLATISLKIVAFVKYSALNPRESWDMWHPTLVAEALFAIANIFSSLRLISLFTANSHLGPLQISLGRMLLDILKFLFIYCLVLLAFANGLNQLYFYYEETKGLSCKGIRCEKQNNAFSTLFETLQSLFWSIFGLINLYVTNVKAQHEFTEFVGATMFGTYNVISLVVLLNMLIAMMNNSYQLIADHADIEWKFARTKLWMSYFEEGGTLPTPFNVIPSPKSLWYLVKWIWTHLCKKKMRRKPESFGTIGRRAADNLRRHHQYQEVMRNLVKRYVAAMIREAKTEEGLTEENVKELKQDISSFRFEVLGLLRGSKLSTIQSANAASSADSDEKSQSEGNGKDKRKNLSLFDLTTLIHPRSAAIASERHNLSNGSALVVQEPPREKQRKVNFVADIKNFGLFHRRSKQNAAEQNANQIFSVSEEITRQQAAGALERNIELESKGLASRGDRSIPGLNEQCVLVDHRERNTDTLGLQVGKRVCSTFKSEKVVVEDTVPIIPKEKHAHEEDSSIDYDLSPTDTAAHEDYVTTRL

[7] = biological target: T2, Short transient receptor potential channel 4; assay: mouse TRPC4 channel activators, dose response, cell-based, HEK293 TRPC4/mu-opioid, Fluo-4 calcium (AID 434937); type: functional
[8] = biological target: T3, Heat shock factor protein 1 (Mus musculus, UniProt P38532); assay: HSF1 potentiators in luciferase reporter cells, confirmation, cell-based, NIH3T3, luminescence, dose retest (AID 435004); type: functional;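 further: stress induced by proteasome inhibitor MG132 added 30 min after compound; luciferase reporter driven by HSF1 response element in NIH3T3 cells; actives raise luminescence as potentiators of the MG132 stress response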
T3 sequence (P38532 whole entry): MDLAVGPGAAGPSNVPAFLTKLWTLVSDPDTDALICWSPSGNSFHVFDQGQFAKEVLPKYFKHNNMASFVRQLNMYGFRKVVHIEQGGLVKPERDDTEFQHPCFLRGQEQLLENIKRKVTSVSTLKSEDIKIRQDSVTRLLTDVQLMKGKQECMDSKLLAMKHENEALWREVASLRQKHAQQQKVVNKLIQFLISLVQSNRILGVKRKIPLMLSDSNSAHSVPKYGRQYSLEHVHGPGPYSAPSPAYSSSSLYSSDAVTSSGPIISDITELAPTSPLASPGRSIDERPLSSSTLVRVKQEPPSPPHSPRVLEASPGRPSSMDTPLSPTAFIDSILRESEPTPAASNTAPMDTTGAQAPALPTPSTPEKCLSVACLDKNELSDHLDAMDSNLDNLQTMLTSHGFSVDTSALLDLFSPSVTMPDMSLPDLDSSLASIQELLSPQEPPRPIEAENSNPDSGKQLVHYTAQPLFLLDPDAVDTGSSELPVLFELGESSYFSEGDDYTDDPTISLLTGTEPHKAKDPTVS

[9] = biological target: T4, High affinity choline transporter 1 (Homo sapiens, UniProt Q9GZV3); assay: CHT inhibitors, dose response, cell-based, 5-point CRC, membrane potential dye (AID 504840); type: functional
T4 sequence (Q9GZV3 whole entry): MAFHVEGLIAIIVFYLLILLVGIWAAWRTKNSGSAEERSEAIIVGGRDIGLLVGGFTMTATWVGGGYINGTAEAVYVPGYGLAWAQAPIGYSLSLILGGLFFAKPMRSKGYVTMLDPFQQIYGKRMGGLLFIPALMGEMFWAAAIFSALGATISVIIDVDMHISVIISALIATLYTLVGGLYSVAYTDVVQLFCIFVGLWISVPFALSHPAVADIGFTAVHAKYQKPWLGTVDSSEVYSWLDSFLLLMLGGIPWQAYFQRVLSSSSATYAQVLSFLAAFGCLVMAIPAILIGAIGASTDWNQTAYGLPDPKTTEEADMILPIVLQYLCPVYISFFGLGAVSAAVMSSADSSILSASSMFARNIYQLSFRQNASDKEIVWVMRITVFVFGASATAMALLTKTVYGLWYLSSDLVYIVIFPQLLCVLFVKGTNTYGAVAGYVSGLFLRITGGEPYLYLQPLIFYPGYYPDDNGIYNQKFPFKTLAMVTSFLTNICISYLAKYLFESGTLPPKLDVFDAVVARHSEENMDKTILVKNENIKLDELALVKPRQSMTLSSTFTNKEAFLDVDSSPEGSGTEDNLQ

[10] = biological target: Hexokinase (Trypanosoma brucei, UniProt Q38C41); assay: Confirmation assay for inhibitors of Trypanosoma brucei hexokinase 1-Analogue-first series. [Related pubchem assays (depositor defined):AID1430, AID1632, AID2516, AID2560, AID2579, AID2600, AID449725, AID492951]; type: functional
[11] = biological target: T5, Tyrosine-protein phosphatase non-receptor type 7 (Homo sapiens, UniProt P35236); assay: SAR analysis of chemical inhibitors of HePTP using a Fluorescent assay - Set 2. [Related pubchem assays (depositor defined):AID1059, AID1077, AID1661, AID2085, AID521]; type: functional
T5 sequence (P35236 whole entry): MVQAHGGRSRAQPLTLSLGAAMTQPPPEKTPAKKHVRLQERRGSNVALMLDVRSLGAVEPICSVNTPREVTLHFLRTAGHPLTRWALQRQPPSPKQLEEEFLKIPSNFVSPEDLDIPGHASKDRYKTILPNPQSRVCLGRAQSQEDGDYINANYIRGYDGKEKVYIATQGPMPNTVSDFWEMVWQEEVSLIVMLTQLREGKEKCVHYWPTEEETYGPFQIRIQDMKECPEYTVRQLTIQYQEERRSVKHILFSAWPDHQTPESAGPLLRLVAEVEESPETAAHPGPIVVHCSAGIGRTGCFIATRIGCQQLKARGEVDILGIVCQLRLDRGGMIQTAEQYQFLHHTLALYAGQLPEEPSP

[12] = biological target: Dual specificity protein phosphatase 3 (Homo sapiens, UniProt P51452); assay: SAR VHR1 Fluorescent Assay for In Vitro dose response studies Set 2. [Related pubchem assays (depositor defined):AID1654, AID1661, AID1878]; type: functional
[13] = biological target: T6, Sphingosine 1-phosphate receptor 4 (Homo sapiens, UniProt O95977); assay: S1P4 receptor agonists, human, late-stage follow-up, cell-based, fluorescence, synthesized compounds (AID 463107); type: functional
T6 sequence (O95977 whole entry): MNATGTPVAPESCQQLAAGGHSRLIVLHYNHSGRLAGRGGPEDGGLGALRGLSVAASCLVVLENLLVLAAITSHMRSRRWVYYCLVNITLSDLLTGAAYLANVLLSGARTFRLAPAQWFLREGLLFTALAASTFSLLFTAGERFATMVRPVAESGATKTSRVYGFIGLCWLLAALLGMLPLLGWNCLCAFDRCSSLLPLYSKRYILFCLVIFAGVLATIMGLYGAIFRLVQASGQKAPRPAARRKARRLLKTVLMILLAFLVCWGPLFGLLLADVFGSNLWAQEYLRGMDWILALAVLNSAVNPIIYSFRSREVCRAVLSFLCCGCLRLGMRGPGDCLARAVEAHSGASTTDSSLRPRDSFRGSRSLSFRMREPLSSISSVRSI

[14] = biological target: Ion channel NompC (Danio rerio, UniProt Q7T1G6); assay: Dose response cell-based high-throughput screening assay for agonists of the transient receptor potential channel N1 (TRPN1). [Related pubchem assays (depositor defined):AID1424, AID1448]; type: functional
[15] = biological target: Mucolipin-3 (Homo sapiens, UniProt Q8TDD5); assay: Fluorescence counterscreen assay for […] agonists: dose response cell-based high-throughput screening assay to identify agonists of the transient receptor potential channel ML3 (TRPML3). [Related pubchem assays: 1424, 1448 ]; type: functional
[16] = biological target: Photoreceptor-specific nuclear receptor (Homo sapiens, UniProt Q9Y5X4); type: functional, cell-based;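 further: CHO-S cells with Gal4-NCOR and VP16-NR2E3 two-hybrid luciferase reporter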
Photoreceptor-specific nuclear receptor, sequence (Q9Y5X4 whole entry, the tested form may be a part): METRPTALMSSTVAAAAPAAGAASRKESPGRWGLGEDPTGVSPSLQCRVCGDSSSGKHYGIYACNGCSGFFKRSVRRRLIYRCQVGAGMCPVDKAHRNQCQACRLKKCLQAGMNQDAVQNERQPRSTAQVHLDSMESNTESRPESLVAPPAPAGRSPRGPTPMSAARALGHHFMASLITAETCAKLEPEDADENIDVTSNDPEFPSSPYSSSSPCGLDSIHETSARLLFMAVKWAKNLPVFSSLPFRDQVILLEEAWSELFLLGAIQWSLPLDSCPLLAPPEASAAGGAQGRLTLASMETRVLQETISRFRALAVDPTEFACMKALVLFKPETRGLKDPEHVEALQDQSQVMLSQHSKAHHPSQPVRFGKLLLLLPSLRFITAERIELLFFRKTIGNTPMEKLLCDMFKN

Type-1 angiotensin II receptor, sequence (P30556 whole entry, the tested form may be a part): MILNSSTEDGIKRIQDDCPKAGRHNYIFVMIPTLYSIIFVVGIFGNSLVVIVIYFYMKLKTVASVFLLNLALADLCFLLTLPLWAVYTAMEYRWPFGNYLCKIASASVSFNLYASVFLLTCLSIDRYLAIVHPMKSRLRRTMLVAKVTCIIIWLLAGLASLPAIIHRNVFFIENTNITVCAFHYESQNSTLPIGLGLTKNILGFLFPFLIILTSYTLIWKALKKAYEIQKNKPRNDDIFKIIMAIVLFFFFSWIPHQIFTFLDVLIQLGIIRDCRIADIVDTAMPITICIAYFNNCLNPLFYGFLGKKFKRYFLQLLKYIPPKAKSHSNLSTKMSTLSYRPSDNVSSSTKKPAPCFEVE
Ion channel NompC, sequence (Q7T1G6 whole entry): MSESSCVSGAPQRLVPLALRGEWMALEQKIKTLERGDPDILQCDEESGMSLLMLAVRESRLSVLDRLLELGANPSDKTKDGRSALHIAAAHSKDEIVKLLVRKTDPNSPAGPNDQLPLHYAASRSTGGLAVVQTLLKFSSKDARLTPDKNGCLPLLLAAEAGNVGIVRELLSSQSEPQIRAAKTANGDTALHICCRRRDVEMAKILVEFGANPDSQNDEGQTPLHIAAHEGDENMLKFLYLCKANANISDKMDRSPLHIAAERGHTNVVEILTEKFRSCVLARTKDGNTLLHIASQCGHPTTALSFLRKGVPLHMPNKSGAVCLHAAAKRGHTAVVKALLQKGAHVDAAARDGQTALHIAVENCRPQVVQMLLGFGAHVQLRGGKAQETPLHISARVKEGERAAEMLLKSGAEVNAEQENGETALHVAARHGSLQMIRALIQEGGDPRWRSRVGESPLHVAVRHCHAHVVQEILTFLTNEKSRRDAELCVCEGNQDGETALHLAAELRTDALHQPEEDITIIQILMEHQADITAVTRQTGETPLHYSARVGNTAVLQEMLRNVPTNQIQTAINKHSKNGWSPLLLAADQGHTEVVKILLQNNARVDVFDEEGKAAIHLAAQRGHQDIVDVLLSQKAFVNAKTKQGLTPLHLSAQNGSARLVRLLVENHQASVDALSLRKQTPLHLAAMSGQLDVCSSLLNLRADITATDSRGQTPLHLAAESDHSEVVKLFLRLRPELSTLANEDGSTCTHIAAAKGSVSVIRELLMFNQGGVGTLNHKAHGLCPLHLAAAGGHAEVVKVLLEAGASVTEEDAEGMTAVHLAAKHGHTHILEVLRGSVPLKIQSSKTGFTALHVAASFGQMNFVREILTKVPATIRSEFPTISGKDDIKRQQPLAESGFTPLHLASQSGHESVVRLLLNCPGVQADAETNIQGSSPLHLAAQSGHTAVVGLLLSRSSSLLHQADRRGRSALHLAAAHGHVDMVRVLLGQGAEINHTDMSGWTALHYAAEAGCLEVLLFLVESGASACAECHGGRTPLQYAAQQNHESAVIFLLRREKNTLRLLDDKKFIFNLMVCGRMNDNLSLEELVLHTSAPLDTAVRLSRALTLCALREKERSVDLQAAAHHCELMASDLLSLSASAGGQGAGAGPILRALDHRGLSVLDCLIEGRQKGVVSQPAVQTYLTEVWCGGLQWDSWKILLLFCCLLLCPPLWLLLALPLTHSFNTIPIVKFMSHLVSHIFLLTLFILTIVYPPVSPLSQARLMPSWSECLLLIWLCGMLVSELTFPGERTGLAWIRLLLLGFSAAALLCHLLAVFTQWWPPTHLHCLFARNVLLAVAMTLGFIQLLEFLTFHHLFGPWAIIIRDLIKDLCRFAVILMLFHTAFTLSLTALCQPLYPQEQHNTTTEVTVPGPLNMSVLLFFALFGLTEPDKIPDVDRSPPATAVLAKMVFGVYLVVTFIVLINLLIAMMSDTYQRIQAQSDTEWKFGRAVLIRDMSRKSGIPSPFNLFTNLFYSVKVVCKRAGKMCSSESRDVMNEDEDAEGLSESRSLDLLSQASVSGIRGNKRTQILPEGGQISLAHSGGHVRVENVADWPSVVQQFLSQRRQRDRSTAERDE
Mucolipin-3, sequence (Q8TDD5 whole entry, the tested form may be a part): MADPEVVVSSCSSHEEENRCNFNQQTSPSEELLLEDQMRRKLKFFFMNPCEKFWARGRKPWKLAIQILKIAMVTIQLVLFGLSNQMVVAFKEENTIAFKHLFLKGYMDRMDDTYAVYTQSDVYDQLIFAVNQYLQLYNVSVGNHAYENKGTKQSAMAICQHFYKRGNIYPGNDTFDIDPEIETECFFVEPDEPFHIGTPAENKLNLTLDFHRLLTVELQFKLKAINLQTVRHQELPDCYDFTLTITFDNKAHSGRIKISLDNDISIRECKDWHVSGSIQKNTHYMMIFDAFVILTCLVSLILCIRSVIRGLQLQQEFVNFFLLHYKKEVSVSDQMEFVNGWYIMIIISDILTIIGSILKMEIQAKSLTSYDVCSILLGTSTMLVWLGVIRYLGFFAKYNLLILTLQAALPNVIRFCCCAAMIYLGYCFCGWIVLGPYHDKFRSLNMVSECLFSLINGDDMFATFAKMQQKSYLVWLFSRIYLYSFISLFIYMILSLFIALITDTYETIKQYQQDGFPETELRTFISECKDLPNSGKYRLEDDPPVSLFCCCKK
Dual specificity protein phosphatase 3, sequence (P51452 whole entry): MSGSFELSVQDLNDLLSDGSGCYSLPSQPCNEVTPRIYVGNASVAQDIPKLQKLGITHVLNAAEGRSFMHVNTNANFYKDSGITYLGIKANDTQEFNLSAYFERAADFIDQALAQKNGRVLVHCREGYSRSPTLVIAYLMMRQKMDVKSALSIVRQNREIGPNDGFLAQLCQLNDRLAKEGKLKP
Hexokinase, sequence (Q38C41 whole entry): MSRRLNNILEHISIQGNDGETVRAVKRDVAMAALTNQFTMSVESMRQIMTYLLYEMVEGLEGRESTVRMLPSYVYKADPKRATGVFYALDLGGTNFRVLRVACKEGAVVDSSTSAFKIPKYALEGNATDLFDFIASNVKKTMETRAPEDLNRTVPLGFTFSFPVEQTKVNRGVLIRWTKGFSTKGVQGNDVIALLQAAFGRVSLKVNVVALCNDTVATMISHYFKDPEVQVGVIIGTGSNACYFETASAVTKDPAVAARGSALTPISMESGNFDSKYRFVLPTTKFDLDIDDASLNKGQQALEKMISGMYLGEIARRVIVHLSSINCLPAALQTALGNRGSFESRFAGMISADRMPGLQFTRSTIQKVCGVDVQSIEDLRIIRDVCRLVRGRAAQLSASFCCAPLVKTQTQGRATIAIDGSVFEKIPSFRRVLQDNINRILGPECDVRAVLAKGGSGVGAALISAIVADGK

SMILES: O=C(NCCN1CCN(c2ccccc2)CC1)c1cccc(Br)c1
EC50 [1]: 7.17 µM (active)

EC50 [2]: > 100 µM (inactive)
SMILES: CCCc1cc(C(=O)Nc2sc3c(c2C(=O)OCC)CCCC3)no1

IC50 [3]: 1.05 µM (active)
SMILES: COC(=O)c1n[nH]c(NC(=O)c2ccccc2Cl)n1

SMILES: CCCCc1cc(O)c(CCCC)c(O)c1
EC50 [4]: 8.86 µM (active)
EC50 [5]: 9.78 µM (active)
EC50 [6]: 1.88 µM (active)
EC50 [7]: 0.473 µM (active)
EC50 [8]: 9.33 µM (active)
IC50 [9]: 6.03 µM (active)

SMILES: O=C(Nc1cc(Cl)ccc1C(=O)O)c1ccc(C(F)(F)F)cc1
IC50 [10]: > 25 µM (inactive)

SMILES: S=C(Nc1ccccc1)N1CCN(Cc2ccc3c(c2)OCO3)CC1
IC50 [11]: > 100 µM (inactive)
IC50 [12]: > 100 µM (inactive)

EC50 [13]: 12 µM (inactive)
SMILES: COCc1ccc(OCCOc2ccc(Cl)cc2Cl)c(Cl)n1

EC50 [14]: > 9.97 µM (inactive)
EC50 [15]: > 29.9 µM (not active)
IC50 [16]: 1.29 µM (active)
SMILES: N#C/C(=N\Nc1ccc(Cl)c(Cl)c1)C(=O)C1CC1
